Experimental data published in PubChem BioAssay (NCI).
Several values for one entry are separate records, joined by “and”; a condition that tells them apart may be missing. Identical values can stand only once.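 Assay format: 96-well plates, 48-hour exposure. GI50 is the concentration that inhibits growth by half. TGI: total growth inhibition.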

Key:
Test in all cases: inhibition of tumour cell growth, NCI panel, 48 h
COLO 205 colon = system: COLO 205 colon
UO-31 renal = system: UO-31 renal
LOX IMVI melanoma = system: LOX IMVI melanoma
NCI/ADR-RES ovarian = system: NCI/ADR-RES ovarian
HCC-2998 colon = system: HCC-2998 colon
OVCAR-4 ovarian = system: OVCAR-4 ovarian
NCI-H23 lung = system: NCI-H23 lung
SF-539 CNS = system: SF-539 CNS
NCI-H226 lung = system: NCI-H226 lung
OVCAR-8 ovarian = system: OVCAR-8 ovarian

| SMILES | TGI (COLO 205 colon) | TGI (UO-31 renal) | TGI (LOX IMVI melanoma) | TGI (NCI/ADR-RES ovarian) | TGI (HCC-2998 colon) | TGI (OVCAR-4 ovarian) | TGI (NCI-H23 lung) | TGI (SF-539 CNS) | TGI (NCI-H226 lung) | TGI (OVCAR-8 ovarian) | GI50 (HCC-2998 colon) | GI50 (SF-539 CNS) | GI50 (COLO 205 colon) | GI50 (UO-31 renal) | GI50 (LOX IMVI melanoma) | GI50 (NCI/ADR-RES ovarian) | GI50 (OVCAR-4 ovarian) | GI50 (NCI-H23 lung) | GI50 (NCI-H226 lung) | GI50 (OVCAR-8 ovarian) |
| --- | --- | --- | --- | --- | --- | --- | --- | --- | --- | --- | --- | --- | --- | --- | --- | --- | --- | --- | --- | --- |
| CCc1n[nH]c(=O)n1N1C(=O)C2CC=CCC2C1=O (stereo unspecified) | > 100 µM | > 100 µM | > 100 µM | > 100 µM | > 100 µM | > 100 µM | > 100 µM | > 100 µM | > 100 µM | > 100 µM | – | – | – | – | – | – | – | – | – | – |
| COC(OC)c1cccc2c1C1(O)CCC3(CC21)OCCCCO3 (stereo unspecified) | > 100 µM | > 100 µM | > 100 µM | – | > 100 µM | > 100 µM | > 100 µM | > 100 µM | > 100 µM | > 100 µM | – | – | – | – | – | – | – | – | – | – |
| O=C(CN1CCN(C(=O)OCc2ccccc2)CCN(CC(=O)N2CCCCC2)CCN(C(=O)OCc2ccccc2)CC1)N1CCCCC1 | 27.2 µM | 30.6 µM | 28.1 µM | 32.5 µM | 25.2 µM | 25.4 µM | > 100 µM | 27.8 µM | 36.6 µM | 33.8 µM | – | – | – | – | – | – | – | – | – | – |
| CC(C)OP(=O)(CN(C)/C(F)=N\C(F)(F)F)OC(C)C | > 100 µM | > 100 µM | > 100 µM | > 100 µM | > 100 µM | – | > 100 µM | > 100 µM | > 100 µM | > 100 µM | – | – | – | – | – | – | – | – | – | – |
| COc1cc([C@@H]2c3cc4c(cc3[C@@H](NCCNCCO)[C@H]3COC(=O)[C@H]23)OCO4)cc(OC)c1O | 24 µM and 24.5 µM | 50 µM and 39.9 µM | – | > 100 µM | 32.2 µM and 12.1 µM | 47.4 µM and > 84.8 µM | 9.94 µM and 10.8 µM | 3.13 µM and 1.04 µM | 4.97 µM and 4.5 µM | > 22.4 µM and 20.8 µM | 3.39 µM and 1.58 µM | 0.702 µM and 0.171 µM | – | – | – | – | – | – | – | – |
| c1ccc(C2SCC3=Nc4ccccc4CN32)cc1 (stereo unspecified) | > 100 µM | > 100 µM | > 100 µM | 48 µM | > 100 µM | > 100 µM | 62.3 µM | 99.2 µM | – | 57.3 µM | – | – | – | – | – | – | – | – | – | – |
| COP(C)(=O)/C(Cc1ccccc1)=N\O (stereo unspecified) | > 100 µM | > 100 µM | > 100 µM | > 100 µM | > 100 µM | > 100 µM | > 100 µM | – | > 100 µM | > 100 µM | – | – | – | – | – | – | – | – | – | – |
| O=C1OCC(C#Cc2ccccc2)=C1Cl | 7.79 µM | > 100 µM | 14.9 µM | 13.8 µM | 15.2 µM | 73.1 µM | 26.9 µM | 19.5 µM | 7.13 µM | > 100 µM | 3.78 µM | 2.52 µM | 2.33 µM | 2.15 µM | 4.31 µM | 3.32 µM | 15.5 µM | 14 µM | 3.11 µM | 3.45 µM |
| CCOc1ccc2c(c1)/C(=C(\C(Cl)=C(Cl)Cl)[N+](=O)[O-])N2 | > 100 µM | > 100 µM | – | > 100 µM | > 100 µM | > 100 µM | > 100 µM | > 100 µM | > 100 µM | > 100 µM | – | – | – | – | – | – | – | – | – | – |
| CC1(c2ccc(Cl)cc2)CC(c2ccc(Cl)cc2)=C(C#N)C(=C(C#N)C#N)N1 (stereo unspecified) | 28.7 µM | 30.7 µM | 33.6 µM | 46.5 µM | 29.5 µM | 35.7 µM | 34.7 µM | 40.7 µM | 75.8 µM | 34 µM | – | – | – | – | – | – | – | – | – | – |
| O=C(N/N=C1\CCc2ccccc2C1)N/N=C1\CCc2ccccc2C1 | > 10 µM | > 10 µM | – | > 10 µM | > 10 µM | > 10 µM | > 10 µM | – | > 10 µM | > 10 µM | – | – | – | – | – | – | – | – | – | – |
| CCOc1ccccc1/C=C1\NC(=O)N(/C=C2\C(=O)Oc3ccccc3C2=O)C1=O | > 100 µM | 75 µM | > 100 µM | > 100 µM | > 100 µM | > 100 µM | 95.5 µM | > 100 µM | > 100 µM | > 100 µM | – | – | – | – | – | – | – | – | – | – |
| COc1ccc(Cc2nc3cc(C(F)(F)F)ccc3n2CCCN(C)C)cc1 | 34.3 µM | 1.04 µM | 40 µM | 45.2 µM | 13.1 µM | 80.4 µM | 41.1 µM | – | > 100 µM | > 100 µM | – | – | – | – | – | – | – | – | – | – |
| O=C(c1cc(Cl)cc(Cl)c1)N(C(=S)OC12CC3CC(CC(C3)C1)C2)c1ccccc1 | 35.4 µM | 82.8 µM | – | > 100 µM | > 100 µM | > 100 µM | > 100 µM | > 100 µM | > 100 µM | > 100 µM | – | – | – | – | – | – | – | – | – | – |
| NC(=O)CCC(NCc1c2ccccc2[n+]([O-])c2ccccc12)C(=O)O (stereo unspecified) | > 100 µM | > 100 µM | > 100 µM | – | > 100 µM | > 100 µM | > 100 µM | – | > 100 µM | > 100 µM | – | – | – | – | – | – | – | – | – | – |
| C/C(=N\Nc1ccc([N+](=O)[O-])cc1[N+](=O)[O-])c1ccc2ccccc2n1 | > 100 µM | > 100 µM | – | > 100 µM | – | – | > 100 µM | > 100 µM | > 100 µM | > 100 µM | – | – | – | – | – | – | – | – | – | – |
| CCP(=O)(CC)C(Cl)(Cl)C(O)C(C)(C)C (stereo unspecified) | > 100 µM | > 100 µM | > 100 µM | > 100 µM | > 100 µM | > 100 µM | > 100 µM | – | > 100 µM | > 100 µM | – | – | – | – | – | – | – | – | – | – |
| O=C1c2ccccc2CC12Cc1cc3c(cc1C2=O)CCC3 (stereo unspecified) | – | > 100 µM | > 100 µM | > 100 µM | > 100 µM | > 100 µM | > 100 µM | > 100 µM | – | > 100 µM | – | – | – | – | – | – | – | – | – | – |
| Cc1ccc(C(=O)C(C)N)cc1 (stereo unspecified) | > 100 µM | > 100 µM | > 100 µM | – | > 100 µM | > 100 µM | > 100 µM | > 100 µM | > 100 µM | > 100 µM | – | – | – | – | – | – | – | – | – | – |
| COC(=O)NCCc1[nH]nc2c1C(=O)C=C(Nc1ccccc1)C2=O | 37.5 µM | > 100 µM | 75.8 µM | 70.3 µM | > 100 µM | 72 µM | 31.4 µM | 52.4 µM | – | 40.2 µM | – | – | – | – | – | – | – | – | – | – |
| CCC1CC2CN3CCc4c([nH]c5c(-c6c(OC)ccc7c8c([nH]c67)[C@]6(C(=O)OC)CC7CC(CC)C6N(CC8)C7)c(O)ccc45)[C@](C(=O)OC)(C2)C13 (stereo partly specified) | 24.7 µM | 27.1 µM | 28 µM | 53.9 µM | 27.2 µM | – | 34.4 µM | 39.7 µM | 22 µM | 49.7 µM | – | – | – | – | – | – | – | – | – | – |
